Measurements from publication PMC9929232, “On-demand male contraception via acute inhibition of soluble adenylyl cyclase” (Nature Communications, 2023).
“Also recorded” adds a separate entry of the source.

What was measured:
[1] = Pharmacokinetic analysis of TDI-11861 in blood and tissues (LC-MS); format: in vivo, mouse; details: i.p.; including cauda epididymis, excluding testis
Description: At defined time points (15 min to 24 hours post-injection), 10 μl tail blood was progressively collected from the same males, mixed with 20 μl 15 mM EDTA, frozen in liquid nitrogen, and stored at −80 °C until analysis. Liver, kidney, eye, testis, caput and cauda epididymis, and seminal vesicle were collected, weighed, and homogenized in a threefold volume of 1:1 EtOH/H2O (v/v). […] Mice anesthetized with ketamine/xylazine were shaved and residual hair was removed with hair removal cream. A small incision was made with a scalpel, a hemostat was used to create a pump-size pocket under the skin, and the pump was inserted with the pump opening facing away from the incision. After the wound was closed, mice were treated with meloxicam for pain relief. For 7 or 42 days post-surgery, tail blood was collected at regular intervals.

[2] = system: fertility of male mice; assay: Timed mouse mating (contraceptive efficacy); format: in vivo; details: for Contraceptive efficacy: vs vehicle
Description: Single-housed naive (i.e., uninjected and virgin) male and female C57Bl/6 mice were acclimatized to a reverse light cycle (dark: 11 AM to 11 PM) for at least 2 weeks. […] Pregnancy and litter size was assessed in two ways. Either female were sacrificed 7 days following mating and implanted embryos counted, or females were permitted to go to term (21 days) and pups counted. A subset of the pups (both male and female) born from breakthrough pregnancies were permitted to mature and their fertility was assessed in standard matings.

[3] = Solubility; format: physicochemical; details: unsuitable for chronic delivery to mice
[4] = system: over 310 kinases; details: cited from earlier work
[5] = at 20 µM; cited from earlier work
[6] = 50 mg/kg i.p., mating period 0.5–2.5 hours, 2 hours
[7] = 50 mg/kg i.p., mating period 1–9 hours, 8 hours

Nc1nc(Cl)cc(-c2nn(C(F)F)cc2Cc2ccccc2OCCN2CCOC[C@@H]2CO)n1 [TDI-11861]
levels in tissues versus blood [1]: correlated well with levels in blood
mating behavior and mating frequency versus vehicle-injected males ([2]; 50 mg/kg i.p.): same frequency as vehicle-injected males; also recorded: indistinguishable
Pregnancy rate ([2]; 50 mg/kg i.p., mating period 0.5–2.5 hours post injection, mating time 2 hours): 0%
Pregnancy pairings (pregnancies/pairings) [2, 6]: zero females became pregnant in 52 pairings; also recorded: (0/52)
Contraceptive efficacy [2, 6]: 100%
Contraceptive efficacy ([2]; 50 mg/kg i.p., mating period 0.5–[…], 3 hours): 91%
Pregnancy rate ([2]; 50 mg/kg i.p., mating period 0.5–[…], mating time 3 hours): 2.2%
Pregnancy pairings (pregnancies/pairings) [2, 7]: 5 pregnancies out of 55 and (5/55)
Contraceptive efficacy [2, 7]: 78%
Pregnancy rate ([2]; 50 mg/kg i.p., mating period 1–9 hours, mating time 8 hours): 9.1%
Pregnancy pairings (pregnancies/pairings) ([2]; 50 mg/kg i.p., mating period 24–120 hours, 96 hours): (13/15)
Pregnancy rate ([2]; 50 mg/kg i.p., mating period 24–120 hours, mating time 96 hours (recovery)): 87%
health of F1 progeny from breakthrough pregnancies ([2]; male and female F1): matured normally into fertile adults
solubility [3]: limited solubility
activity against over 310 kinases [4]: no significant activity
cytotoxicity in cell viability assays [5]: no significant activity
